Experimental data as given in paper PMC12122562, “Phase 1 studies of the indenoisoquinolines LMP776 and LMP744 in patients with solid tumors and lymphomas” (Cancer Chemotherapy and Pharmacology, 2025).
“Also recorded” adds a separate entry of the source.

Columns and labels:
[1] = system: advanced, refractory solid tumors or lymphomas; test: Phase 1 trial of LMP744: tumor response (RECIST v1.1), cycles completed; type: in vivo, human
Experimental: Tumor responses were evaluated by serial CT scans according to RECIST v1.1 criteria. CT scans were performed every other cycle during the first year, then every 3 cycles after the first year. Toxicities associated with LMP776 were evaluated according to criteria specified in CTCAE version 4.0; toxicities associated with LMP744 were evaluated according to the criteria specified in CTCAE version 4.03 (on or before March 31, 2018) or version 5.0 (on or after April 1, 2018). Criteria for all versions can be found at https://ctep.cancer.gov/protocolDevelopment/electronic_applications/ctc.htm. Any patient who received a dose of either agent was considered eligible for toxicity evaluation.

[2] = system: patients with advanced, refractory solid tumors or lymphomas; test: Phase 1 trial of LMP776 (NCT01051635): safety, MTD, adverse events (CTCAE v4.0); type: in vivo
Text: The primary objectives of each study included establishing safety, tolerability, MTD, and recommended phase 2 dose (RP2D) of LMP776 and LMP744 as single agents. The LMP744 study included evaluation of tumor pharmacodynamics as an exploratory objective. Both trials were opened at the National Cancer Institute’s (NCI) Developmental Therapeutics Clinic, and the LMP744 trial was also opened at the University of Pittsburgh Hillman Cancer Center. Both trials used an accelerated dose escalation designs (Simon design 4 for LMP776, Simon design 3 for LMP744) to determine the MTD [30]. Dose levels are listed in Supplementary Table 1. Once the MTD was determined, additional patients were enrolled at that DL in an expansion cohort to evaluate pharmacodynamic changes as described below. LMP776 and LMP744 were administered intravenously through a central line via a 1-h infusion on days 1–5 (QDx5) in 28-day cycles. Both agents were supplied by the NCI Division of Cancer Treatment and Diagnosis (DCTD). The studies were approved by the NIH Institutional Review Board and conducted in accordance with the Declaration of Helsinki.
Patients were enrolled in either NCT01051635 evaluating LMP776 or NCT03030417 evaluating LMP744; these trials were conducted sequentially. Both trials required that patients be ≥ 18 years of age with solid tumors or lymphomas refractory to other treatments. Patients were required to have adequate performance status (Eastern Cooperative Oncology Group [ECOG] performance status ≤ 2), bone marrow function, and organ function as described in the Supplementary Methods. Patients in expansion phases at the MTD were required to have disease amenable to biopsy collection and be willing to undergo research biopsies. All patients provided written informed consent.
Tumor responses were evaluated by serial CT scans according to RECIST v1.1 criteria. CT scans were performed every other cycle during the first year, then every 3 cycles after the first year. […] Criteria for all versions can be found at https://ctep.cancer.gov/protocolDevelopment/electronic_applications/ctc.htm. Any patient who received a dose of either agent was considered eligible for toxicity evaluation.

[3] = all DLs, highest grade per patient
[4] = grade 2, DL1-DL2 (n = 8; suppl. DL2, n=7)

COc1cc2c3c(n(CCCNCCO)c(=O)c2cc1OC)-c1cc2c(cc1C3=O)OCO2 [LMP744]
Overall response rate ([1]; 35 patients): 3% | Patients with a partial response (one confirmed) ([1]; in vivo): Two | Patients with stable disease for ≥ 3 cycles ([1]; in vivo): 12 | Cycles of treatment completed with SD ([1]; patient 10, low-grade appendiceal mucinous neoplasm): 31 cycles

COc1cc2c3c(n(CCCn4ccnc4)c(=O)c2cc1OC)-c1cc2c(cc1C3=O)OCO2 [LMP776]
Grade 3 non-hematologic toxicities ([2]; DL8 (16 mg/m^2/day), one patient each): hypokalemia, hyponatremia, and hypophosphatemia | Maximum tolerated dose (MTD) ([2]; IV QDx5, 28-day cycles (DL7)): 12 mg/m^2/day | Anemia, grade ≥ 2, prevalence ([2]; across all DLs): 50% | Lymphopenia, grade ≥ 2, prevalence ([2]; across all DLs): 38% | Thrombocytopenia, grade ≥ 2, prevalence ([2]; across all DLs): 18% | Alkaline phosphatase increased, grade ≥ 2, Total (%) ([2]; all DLs): 1 (3) | Aspartate aminotransferase increased, grade ≥ 2, Total (%) ([2]; all DLs): 2 (6) | Dehydration, grade ≥ 2, Total (%) ([2]; all DLs): 2 (6) | Diarrhea, grade ≥ 2, Total (%) ([2]; all DLs): 1 (3) | Dysgeusia, grade ≥ 2, Total (%) ([2]; all DLs): 2 (6) | Fatigue, grade ≥ 2, Total (%) ([2]; all DLs): 3 (9) | Hypercalcemia, grade ≥ 2, Total (%) ([2]; all DLs): 1 (3) | Hypoalbuminemia, grade ≥ 2, Total (%) ([2]; all DLs): 3 (9) | Hypoglycemia, grade ≥ 2, Total (%) ([2]; all DLs): 1 (3) | Hypokalemia, grade ≥ 2, Total (%) ([2]; all DLs): 1 (3) | Hypomagnesemia, grade ≥ 2, Total (%) ([2]; all DLs): 1 (3) | Hyponatremia, grade ≥ 2, Total (%) ([2]; all DLs): 2 (6) | Hypothyroidism, grade ≥ 2, Total (%) ([2]; all DLs): 1 (3) | Mucositis - oral, grade ≥ 2, Total (%) ([2]; all DLs): 1 (3) | Nausea, grade ≥ 2, Total (%) ([2]; all DLs): 2 (6) | Vomiting, grade ≥ 2, Total (%) ([2]; all DLs): 1 (3) | White blood cell decreased, grade ≥ 2, Total (%) ([2]; all DLs): 3 (9) | Anemia, grade ≥ 2, Total (%) [2, 3]: 17 (50) | Hypophosphatemia, grade ≥ 2, Total (%) [2, 3]: 4 (12) | Lymphopenia (Lymphocyte count decreased), grade ≥ 2, Total (%) [2, 3]: 13 (38) | Neutropenia, grade ≥ 2, Total (%) [2, 3]: 5 (15) | Thrombocytopenia (Platelet count decreased), grade ≥ 2, Total (%) [2, 3]: 6 (18) | Patients requiring a dose reduction ([2]; enrolled at DL8): One | Anemia, patients [2, 4]: 5 | Hypophosphatemia, patients [2, 4]: 1 | Lymphopenia (Lymphocyte count decreased), patients [2, 4]: 2 | Hypoalbuminemia, patients ([2]; grade 2, DL2): 1 | Lymphopenia (Lymphocyte count decreased), patients ([2]; grade 2, DL3-DL4): 1 | Anemia, patients ([2]; grade 2, DL3-DL4 (n = 6)): 2 | Dehydration, patients ([2]; grade 2, DL5-DL6): 1 | Diarrhea, patients ([2]; grade 2, DL5-DL6): 1 | Fatigue, patients ([2]; grade 2, DL5-DL6): 1 | Neutropenia, patients ([2]; grade 2, DL5-DL6): 1 | Anemia, patients ([2]; grade 2, DL5-DL6 (n = 6)): 3 | Aspartate aminotransferase increased, patients ([2]; grade 2, DL7): 1 | Hypophosphatemia, patients ([2]; grade 2, DL7): 1 | Anemia, patients ([2]; grade 2, DL7 (n = 7)): 1 | Aspartate aminotransferase increased, patients ([2]; grade 2, DL8): 1 | Dehydration, patients ([2]; grade 2, DL8): 1 | Dysgeusia, patients ([2]; grade 2, DL8): 2 | Fatigue, patients ([2]; grade 2, DL8): 2 | Hypoalbuminemia, patients ([2]; grade 2, DL8): 2 | Hypomagnesemia, patients ([2]; grade 2, DL8): 1 | Hypophosphatemia, patients ([2]; grade 2, DL8): 1 | Hypothyroidism, patients ([2]; grade 2, DL8): 1 | Nausea, patients ([2]; grade 2, DL8): 2 | Neutropenia, patients ([2]; grade 2, DL8): 1 | Thrombocytopenia (Platelet count decreased), patients ([2]; grade 2, DL8): 1 | Vomiting, patients ([2]; grade 2, DL8): 1 | White blood cell decreased, patients ([2]; grade 2, DL8): 1 | Anemia, patients ([2]; grade 2, all DLs (n=34)): 11 | Aspartate aminotransferase increased, patients ([2]; grade 2, all DLs (n=34)): 2 | Dehydration, patients ([2]; grade 2, all DLs (n=34)): 2 | Diarrhea, patients ([2]; grade 2, all DLs (n=34)): 1 | Dysgeusia, patients ([2]; grade 2, all DLs (n=34)): 2 | Fatigue, patients ([2]; grade 2, all DLs (n=34)): 3 | Hypercalcemia, patients ([2]; grade 2, all DLs (n=34)): 1 | Hypoalbuminemia, patients ([2]; grade 2, all DLs (n=34)): 3 | Hypomagnesemia, patients ([2]; grade 2, all DLs (n=34)): 1 | Hyponatremia, patients ([2]; grade 2, all DLs (n=34)): 2 | Hypophosphatemia, patients ([2]; grade 2, all DLs (n=34)): 3 | Hypothyroidism, patients ([2]; grade 2, all DLs (n=34)): 1 | Lymphocyte count decreased, patients ([2]; grade 2, all DLs (n=34)): 3 | Nausea, patients ([2]; grade 2, all DLs (n=34)): 2 | Neutropenia, patients ([2]; grade 2, all DLs (n=34)): 2 | Platelet count decreased, patients ([2]; grade 2, all DLs (n=34)): 1 | Vomiting, patients ([2]; grade 2, all DLs (n=34)): 1 | White blood cell count decreased, patients ([2]; grade 2, all DLs (n=34)): 1 | Hypoglycemia, patients ([2]; grade 3, DL2): 1 | Lymphopenia (Lymphocyte count decreased), patients ([2]; grade 3, DL3-DL4): 2 | Anemia, patients ([2]; grade 3, DL3-DL4 (n = 6)): 1 | Lymphopenia (Lymphocyte count decreased), patients ([2]; grade 3, DL5-DL6): 1 | Alkaline phosphatase increased, patients ([2]; grade 3, DL7): 1 | Hyponatremia, patients ([2]; grade 3, DL7): 1 | Lymphopenia (Lymphocyte count decreased), patients ([2]; grade 3, DL7): 2 | Mucositis - oral, patients ([2]; grade 3, DL7): 1 | Thrombocytopenia (Platelet count decreased), patients ([2]; grade 3, DL7): 1 | Anemia, patients ([2]; grade 3, DL7 (n = 7)): 1 | Hypokalemia, patients ([2]; grade 3, DL8): 1 | Hyponatremia, patients ([2]; grade 3, DL8): 1 | Hypophosphatemia, patients ([2]; grade 3, DL8): 1 | Lymphopenia (Lymphocyte count decreased), patients ([2]; grade 3, DL8): 3 | Neutropenia, patients ([2]; grade 3, DL8): 2 | Thrombocytopenia (Platelet count decreased), patients ([2]; grade 3, DL8): 3 | White blood cell decreased, patients ([2]; grade 3, DL8): 1 | Anemia, patients ([2]; grade 3, DL8 (n = 7)): 4 | Alkaline phosphatase increased, patients ([2]; grade 3, all DLs (n=34)): 1 | Anemia, patients ([2]; grade 3, all DLs (n=34)): 6 | Hypoglycemia, patients ([2]; grade 3, all DLs (n=34)): 1 | Hypokalemia, patients ([2]; grade 3, all DLs (n=34)): 1 | Lymphocyte count decreased, patients ([2]; grade 3, all DLs (n=34)): 8 | Mucositis - oral, patients ([2]; grade 3, all DLs (n=34)): 1 | Neutropenia, patients ([2]; grade 3, all DLs (n=34)): 2 | Platelet count decreased, patients ([2]; grade 3, all DLs (n=34)): 3 | White blood cell count decreased, patients ([2]; grade 3, all DLs (n=34)): 1 | Hypercalcemia, patients ([2]; grade 4, DL2): 1 | Lymphopenia (Lymphocyte count decreased), patients ([2]; grade 4, DL8): 2 | Neutropenia, patients ([2]; grade 4, DL8): 1 | Thrombocytopenia (Platelet count decreased), patients ([2]; grade 4, DL8): 1 | White blood cell decreased, patients ([2]; grade 4, DL8): 1 | Lymphocyte count decreased, patients ([2]; grade 4, all DLs (n=34)): 2 | Neutropenia, patients ([2]; grade 4, all DLs (n=34)): 1 | Platelet count decreased, patients ([2]; grade 4, all DLs (n=34)): 1 | White blood cell count decreased, patients ([2]; grade 4, all DLs (n=34)): 1 | Dose-limiting toxicities (DLTs) ([2]; in vivo): hypercalcemia, anemia, and hyponatremia; also recorded: Hypercalcemia and hyponatremia were dose-limiting | Nausea, prevalence ([2]; in vivo): 6%
